In ChEMBL document CHEMBL1201862, “PubChem BioAssay data set” (2004) one finds EC50, IC50 and AC50 data, which are given here for 27 compounds.

Activity calls are given as the source filed them. Some results are limits rather than exact numbers.

Test [1] in a line: viability of HCT116 lacking mutant beta-catenin – cell-based, human colon tumor, dose response (AID 1045).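 Also: HCT116 colon tumor cells with beta catenin knocked out; cells exposed to compound for 60 hours.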 It counts as functional.
Test [2] is described as follows: viability of PTEN-deleted HCT116 cells – cell-based, HCT116 PTEN knockout, dose response (AID 1047).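 Also: HCT116 colon tumor cells with PTEN knocked out; cells exposed to compound for 60 hours before readout; potency for loss of cell viability measured by luminescence.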 It counts as functional.
Test [3] deals with T1, Polyadenylate-binding protein 1 (Homo sapiens, UniProt P11940). Kind of test: MLLE binding blockers, Cy5 peptide tracer – biochemical, fluorescence polarization, Cy5-PAM2 peptide, secondary, miRNA deadenylation inhibitor project, dose response (AID 602260). The following applies: read-out: IC50_Mean. It counts as functional.
Test [4] concerns the target T1, Polyadenylate-binding protein 1. Kind of test: MLLE domain peptide-binding blockers, IC50 – biochemical, fluorescence polarization, FITC-PAM2 peptide, dose response (AID 602259). It counts as functional. The conditions noted are these: read-out: IC50_Mean. In general terms: Polarisation of emitted light reports the rotation of a fluorescent probe.
A short description of test [5]: fluconazole-exposed Candida albicans growth modulators – fluorescence, retest, confirmation (AID 2467). It counts as functional, cell-based.
The nature of test [6]: NIH-3T3 fibroblast cytotoxicity, dose response, cytotoxicity control, cell-based, fluorescence, Alamar Blue, secondary assay (AID 2327).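 Also: NIH-3T3 mouse fibroblasts cultured with fluconazole at 8 µg/mL.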 It counts as functional.
Test [7] addresses T2, Carboxy-terminal domain RNA polymerase II polypeptide A small phosphatase 1 (Homo sapiens, UniProt Q9GZU7).
T2 sequence (Q9GZU7 whole entry): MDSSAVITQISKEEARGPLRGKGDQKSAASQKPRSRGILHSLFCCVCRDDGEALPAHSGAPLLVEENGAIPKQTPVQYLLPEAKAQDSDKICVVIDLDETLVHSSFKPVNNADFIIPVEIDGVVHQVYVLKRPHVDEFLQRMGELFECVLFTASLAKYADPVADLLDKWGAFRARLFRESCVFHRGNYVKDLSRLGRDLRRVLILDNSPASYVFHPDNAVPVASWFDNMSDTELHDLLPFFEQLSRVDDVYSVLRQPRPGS
Kind of test: CTDSP1 inhibitors, concentration-response, biochemical, absorbance readout, ultra-high-throughput screen actives (AID 540297). It counts as functional.

Test [8] concerns the target T3, RNA-binding protein pos-1 (Caenorhabditis elegans, UniProt G5EF15).
T3 sequence (G5EF15 whole entry): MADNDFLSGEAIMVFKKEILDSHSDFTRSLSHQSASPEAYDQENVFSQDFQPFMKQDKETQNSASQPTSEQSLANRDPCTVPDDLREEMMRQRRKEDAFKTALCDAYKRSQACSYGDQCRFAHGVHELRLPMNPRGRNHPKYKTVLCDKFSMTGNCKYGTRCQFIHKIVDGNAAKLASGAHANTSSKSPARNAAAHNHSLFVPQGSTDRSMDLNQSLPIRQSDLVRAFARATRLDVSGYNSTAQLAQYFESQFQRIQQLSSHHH
Kind of test: disruptors of C. elegans POS-1 RNA interaction – biochemical, fluorescence polarization, dose response (AID 1964).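 Also: purified POS-1 fused to maltose binding protein made in E. coli; potency of compounds blocking POS-1 binding to fluorescent RNA.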

The target in a further test is Large T antigen (Simian virus 40, UniProt P03070). It counts as functional, Betapolyomavirus macacae.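 Also: Confirmatory-stage PubChem screen for compounds that inhibit SV40 T antigen.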
In test [9] the target is T4, Zinc finger protein mex-5 (Caenorhabditis elegans, UniProt Q9XUB2).
T4 sequence (Q9XUB2 whole entry): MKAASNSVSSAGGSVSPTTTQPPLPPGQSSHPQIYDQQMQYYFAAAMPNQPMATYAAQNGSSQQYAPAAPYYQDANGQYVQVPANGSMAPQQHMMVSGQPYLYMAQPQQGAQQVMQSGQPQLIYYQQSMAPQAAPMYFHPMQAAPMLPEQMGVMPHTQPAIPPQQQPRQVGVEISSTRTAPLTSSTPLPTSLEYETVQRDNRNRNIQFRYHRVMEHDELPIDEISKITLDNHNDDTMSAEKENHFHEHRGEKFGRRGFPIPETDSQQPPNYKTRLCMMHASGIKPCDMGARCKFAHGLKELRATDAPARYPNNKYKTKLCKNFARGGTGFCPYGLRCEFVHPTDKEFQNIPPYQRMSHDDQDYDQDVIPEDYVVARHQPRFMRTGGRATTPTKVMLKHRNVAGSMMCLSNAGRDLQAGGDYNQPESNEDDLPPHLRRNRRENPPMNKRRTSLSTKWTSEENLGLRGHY
Kind of test: potency of MEX-5 RNA-binding blockers – biochemical, C. elegans, fluorescence polarization, dose response (AID 1960).

For test [10], the target named is Luciferin 4-monooxygenase (Photinus pyralis, UniProt P08659). Kind of test: inhibition of purified Photinus pyralis luciferase – biochemical, luminescence, dose response (AID 1891).
Test [11] can be described thus: Luminescence Cell-Based Dose Confirmation HTS to Identify Inhibitors of Platelet Dense Granule Release. [Related pubchem assays: 1663 (Primary HTS), 1678 (Summary of Project)]. It counts as functional.
Test [12] can be described thus: intracellular Trypanosoma cruzi inhibitors in host cells – cell-based, plate reader, cherry-pick samples, set 3, dose response (AID 651818).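 Also: compounds incubated with infected cells for about four days.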 It counts as functional.
The next test addresses Paired box protein Pax-8 (Homo sapiens, UniProt Q06710). Description: PAX8 transcriptional activity inhibition in RMG-I – RMG-I cells, luciferase, cherry-pick, dose response (AID 687027).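 Also: luciferase reporter driven by Pax8 target thyroperoxidase promoter measured by SteadyGlo luminescence.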 It counts as functional, cell-based.

T1 sequence (P11940 whole entry, the tested form may be a part): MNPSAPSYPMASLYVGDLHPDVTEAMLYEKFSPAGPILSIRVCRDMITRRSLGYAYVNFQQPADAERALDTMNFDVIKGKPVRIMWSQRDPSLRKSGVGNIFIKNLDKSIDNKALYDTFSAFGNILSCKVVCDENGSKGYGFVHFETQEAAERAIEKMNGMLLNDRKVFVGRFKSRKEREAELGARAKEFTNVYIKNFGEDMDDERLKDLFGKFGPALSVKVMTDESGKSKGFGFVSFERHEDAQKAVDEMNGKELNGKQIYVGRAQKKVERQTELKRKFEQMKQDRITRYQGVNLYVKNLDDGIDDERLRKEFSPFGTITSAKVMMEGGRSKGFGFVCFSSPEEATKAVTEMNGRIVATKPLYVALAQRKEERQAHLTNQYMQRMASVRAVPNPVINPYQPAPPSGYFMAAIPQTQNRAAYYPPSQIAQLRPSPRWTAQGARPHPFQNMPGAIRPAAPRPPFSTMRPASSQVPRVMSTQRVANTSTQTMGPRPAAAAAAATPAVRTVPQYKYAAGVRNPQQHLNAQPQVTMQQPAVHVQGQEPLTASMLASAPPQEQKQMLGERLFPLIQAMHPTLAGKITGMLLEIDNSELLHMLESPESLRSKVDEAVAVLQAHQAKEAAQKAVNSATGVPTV
Large T antigen, sequence (P03070 whole entry): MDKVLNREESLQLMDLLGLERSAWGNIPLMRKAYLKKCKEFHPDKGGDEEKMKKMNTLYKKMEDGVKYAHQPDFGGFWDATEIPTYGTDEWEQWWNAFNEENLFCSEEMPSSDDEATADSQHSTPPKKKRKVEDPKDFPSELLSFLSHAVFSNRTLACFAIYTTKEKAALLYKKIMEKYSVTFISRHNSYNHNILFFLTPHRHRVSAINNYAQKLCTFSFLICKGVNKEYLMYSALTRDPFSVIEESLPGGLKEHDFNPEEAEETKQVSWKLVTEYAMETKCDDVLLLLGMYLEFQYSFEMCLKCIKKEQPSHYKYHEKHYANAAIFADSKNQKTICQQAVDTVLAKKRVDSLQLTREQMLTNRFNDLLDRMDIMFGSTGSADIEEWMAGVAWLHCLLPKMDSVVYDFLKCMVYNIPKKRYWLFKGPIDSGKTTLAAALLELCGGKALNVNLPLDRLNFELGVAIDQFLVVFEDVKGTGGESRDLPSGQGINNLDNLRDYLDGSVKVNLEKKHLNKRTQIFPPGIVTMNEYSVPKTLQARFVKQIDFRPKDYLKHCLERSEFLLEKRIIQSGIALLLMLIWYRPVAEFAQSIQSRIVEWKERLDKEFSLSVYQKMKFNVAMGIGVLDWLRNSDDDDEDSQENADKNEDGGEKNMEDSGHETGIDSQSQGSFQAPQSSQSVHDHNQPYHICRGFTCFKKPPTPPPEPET
Luciferin 4-monooxygenase, sequence (P08659 whole entry): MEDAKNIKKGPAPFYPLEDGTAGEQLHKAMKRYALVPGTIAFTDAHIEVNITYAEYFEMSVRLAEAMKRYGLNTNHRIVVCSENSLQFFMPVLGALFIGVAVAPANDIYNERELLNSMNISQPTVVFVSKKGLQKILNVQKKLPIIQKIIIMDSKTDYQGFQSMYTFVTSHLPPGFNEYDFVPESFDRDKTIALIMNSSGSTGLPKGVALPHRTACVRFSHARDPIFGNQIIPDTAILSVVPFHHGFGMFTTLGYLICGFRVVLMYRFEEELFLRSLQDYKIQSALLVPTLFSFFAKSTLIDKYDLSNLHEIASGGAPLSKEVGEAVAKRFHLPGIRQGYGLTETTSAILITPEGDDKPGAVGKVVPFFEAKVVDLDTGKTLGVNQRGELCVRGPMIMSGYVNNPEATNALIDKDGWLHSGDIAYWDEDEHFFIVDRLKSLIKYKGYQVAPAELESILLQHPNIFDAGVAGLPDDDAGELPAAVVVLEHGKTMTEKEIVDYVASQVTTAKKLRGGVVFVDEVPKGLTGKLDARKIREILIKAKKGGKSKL
Paired box protein Pax-8, sequence (Q06710 whole entry): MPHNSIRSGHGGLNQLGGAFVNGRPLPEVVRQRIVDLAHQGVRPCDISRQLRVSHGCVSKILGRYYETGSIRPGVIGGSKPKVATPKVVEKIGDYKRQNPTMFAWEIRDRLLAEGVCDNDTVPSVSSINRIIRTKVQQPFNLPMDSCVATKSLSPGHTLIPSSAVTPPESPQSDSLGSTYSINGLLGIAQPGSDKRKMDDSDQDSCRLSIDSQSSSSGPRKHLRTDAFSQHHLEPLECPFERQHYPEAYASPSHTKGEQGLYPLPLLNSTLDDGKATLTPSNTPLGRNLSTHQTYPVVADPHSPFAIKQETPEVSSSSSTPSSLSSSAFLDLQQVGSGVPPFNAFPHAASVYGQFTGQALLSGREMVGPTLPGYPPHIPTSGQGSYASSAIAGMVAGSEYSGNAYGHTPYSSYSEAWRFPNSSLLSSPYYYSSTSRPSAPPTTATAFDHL

By EC50 is commonly meant the midpoint of the concentration-response curve. Take `COc1cccc(C(=O)Oc2ccccc2/C=C\C(=O)c2cc3ccccc3o2)c1`: the EC50 was 6.66 µM (active) in [1] and 7.8 µM (active) in [2].
`CC(=O)C(Sc1nccc(-c2cccs2)n1)C(C)=O`: the IC50 in [3] and in test [4] was > 66 µM (inactive) throughout.
Take `Oc1[nH]c2c(Cl)cc(Cl)cc2c1N=NC(S)=NCC1CCCO1` (stereo unspecified): the EC50 was 3.03 µM (active) in test [5], 1.22 µM (active) in test [1], 1.67 µM (active) in [2] and 19.8 µM (inconclusive) in test [6].
Consider `Cc1ccc(SC2CC(=O)N(c3ccc4c(c3)OCCO4)C2=O)cc1` (stereo unspecified), for which the IC50 in [3] and in [4] was > 66 µM (inactive) throughout.
As to `C[n+]1cnc(-c2ccccc2)cc1-c1ccccc1`, the IC50 in test [7] is 3.35 µM (active).
As to `Oc1[nH]c(S)nc2nc(S)nc1-2`, the 50% effective concentration (EC50) in test [8] was 32 µM (active); in test [9], 8.3 µM (active). Moreover, the IC50 on Large T antigen was 27.2 µM (active).
For `O=[N+]([O-])c1ccc(-c2nc(=S)c3c(o2)CCCC3)cc1`, the IC50 in test [3] and in test [4] was > 66 µM (inactive) each time.
`CCOc1nc(-c2ccc(OC)cc2)ccc1-c1noc(-c2cc(OC)c(OC)c(OC)c2)n1`: the values for the EC50 in [1] and in test [2] were 25.5 µM (active) and 21.1 µM (active), respectively.
Turning to `O=C(COC(=O)/C=C/c1ccco1)Nc1ncc(Cl)cc1Cl`, the IC50 in test [7] is 17 µM (active).
Consider `CC(=O)Oc1cc2c(C(=O)NCCCN3CCOCC3)c(C)oc2c2ccccc12`, for which the EC50 in [1] is 4.45 µM (active); in [2], 3.79 µM (active).
In the case of `C=CCNC(=O)COC(=O)c1c2c(nc3ccccc13)CCC2`, the IC50 in test [7] was 7.39 µM (active).
As to `Cc1ccc(NC(=O)CC2SC(=O)N(c3ccccc3)C2=O)cc1` (stereo unspecified), the IC50 in test [3] and in test [4] was > 66 µM (inactive) throughout. Moreover, the EC50 in test [10] was > 112 µM (not active); in [11], 109 µM (active).
As to `COc1ccc(N2C(=O)/C(=C/c3ccc(C)o3)C(=O)NC2=S)c(OC)c1`, the values for the 50% effective concentration (EC50) in [8] and in test [9] were > 300 µM (not active) and 41.3 µM (active), respectively. Moreover, on Large T antigen, the IC50 is 34.3 µM (active).
Turning to `O=C(CSc1oc(-c2ccc(F)cc2)nc1S(=O)(=O)c1ccc(F)cc1)NCC1CCCO1` (stereo unspecified), the EC50 in [1] is 13.6 µM (active); in test [2], 10.2 µM (active).
As to `Cc1cc2cc(CNC(=O)c3cccs3)ccc2n1C`, the IC50 in [3] and in [4] was > 66 µM (inactive) throughout.
With `Cc1cccc(C(=O)OCC(=O)c2ccc(CC(=O)N3CCOCC3)s2)c1C`, the IC50 in test [7] is 6.46 µM (active).
Broadly, the AC50 is the concentration at which the activity in the assay is half-maximal. As for `C[C@H](CO)N1C[C@H](C)[C@@H](CN(C)Cc2ccc(Oc3ccccc3)cc2)Oc2ccc(N(C)C)cc2C1=O`, in test [12], the AC50 was 2.27 µM (active).
On the same count and under the same terms, in the case of `C[C@H]1CN([C@@H](C)CO)C(=O)c2cccc(NC(=O)CCCCCC(=O)Nc3ccccc3N)c2O[C@@H]1CN(C)CC1CCCCC1` it was 1.95 µM (active); in that of `C[C@H](CO)N1C[C@H](C)[C@H](CN(C)Cc2ccc(C(=O)Nc3ccccc3N)cc2)Oc2ccc(NS(=O)(=O)c3ccc(F)cc3)cc2CC1=O`, 2.64 µM (active).
For the compound `Cc1ccc(S(=O)(=O)N(C)C[C@H]2Oc3ccc(NC(=O)Nc4cccc5ccccc45)cc3CC(=O)N([C@@H](C)CO)C[C@H]2C)cc1`, the AC50 in test [12] is 4.81 µM (active).
Same read-out and setting: the same measure for `C[C@@H]1CN([C@@H](C)CO)C(=O)c2cccc(NC(=O)c3ccncc3)c2O[C@@H]1CN(C)Cc1ccc(Cl)c(Cl)c1`: 1.31 µM (active).
For `COc1ccc(NC(=O)Nc2ccc3c(c2)CC(=O)N([C@H](C)CO)C[C@@H](C)[C@@H](CN(C)Cc2ccc(Oc4ccccc4)cc2)O3)cc1`, the concentration at half-maximal activity (AC50) is 2.09 µM (active) in test [12] and 23.5 µM (active) on Paired box protein Pax-8.
With `COc1ccc(S(=O)(=O)Nc2ccc3c(c2)C(=O)N([C@H](C)CO)C[C@H](C)[C@H](CN(C)Cc2ccc(C(F)(F)F)cc2)OCCCC[C@@H](C)O3)cc1`, in test [12], the concentration at half-maximal activity (AC50) was 3.2 µM (active).
As to `C[C@@H]1CN([C@@H](C)CO)C(=O)c2cccc(NC(=O)Nc3ccc(C(F)(F)F)cc3)c2O[C@@H]1CN(C)S(=O)(=O)c1ccc(Cl)cc1`, the half-maximal activity concentration (AC50) in test [12] is 2.79 µM (active).
Same read-out and setting: in the case of `C[C@@H]1CN([C@H](C)CO)C(=O)Cc2cc(NC(=O)NC3CCCCC3)ccc2O[C@H]1CN(C)Cc1ccc(C(=O)Nc2ccccc2N)cc1` it was 5.26 µM (active); in that of `C[C@@H]1CCCCO[C@H](CN(C)Cc2ccc(C(F)(F)F)cc2)[C@@H](C)CN([C@H](C)CO)C(=O)c2cc(NC(=O)Nc3ccc(C(F)(F)F)cc3)ccc2O1`, 3.15 µM (active).
In the case of `O=C(Cc1nnc(NC(=O)c2ccccc2)s1)N/N=C/c1ccc(O)cc1`, the IC50 in [7] was 8.5 µM (active).
